From patent publication US20240342141A1, “Method for Treating or Preventing Diabetic Nephropathy” (Japan Tobacco Inc., priority 2015, published 2024)

Columns and labels:
[1] = test system: prolyl hydroxylase (PHD); conditions: as described in Patent Document 1 (WO 2011/007856); cited from earlier work
[2] = test system: hypoxia-inducible factor (HIF); conditions: as described in Patent Document 1 (WO 2011/007856); cited from earlier work
[3] = test system: SHR/NDmcr-cp rat model of diabetic nephropathy; assay: Suppressive effect on tubulointerstitial fibrosis in a rat model of diabetic nephropathy (sirius red staining); type: in vivo; conditions: male SHR/NDmcr-cp rats, Compound A 0.01% diet from 12 to 40 weeks of age (28 weeks), kidney sections; FIG. 1
Protocol: Experiment 1. […] Male […] (Japan SLC, Inc.) was used as an experiment animal, and male WKY/Izm rat was used as a normal control (WKY group). The above-mentioned two types of rats were purchased at 6 weeks of age. After confirming that […] have hyperglycemia, hypertension, and hyperlipidemia; Compound A (0.01% diet) and vehicle (powdered diet) were administered to Compound A Group and Vehicle Group respectively from 12 weeks of age to 40 weeks of age. At 40 weeks of age, the rats were exsanguinated under isoflurane anesthesia, kidney was collected and fixed in 10% neutral buffered formalin, and then paraffin-embedded section was prepared. After deparaffinization, the section was stained with an iron hematoxylin solution for 8 minutes and then with a sirius red solution for 1 hour. The iron hematoxylin solution was prepared at the time of use by mixing equal volume of Solution 1 (dissolving 1 g hematoxylin in 100 mL ethanol) and Solution 2 (dissolving 2 g ferric chloride (FeCl3·6H2O) and 1 mL of 25% hydrochloric acid in 95 mL distilled water). […] An image of the sirius red-stained section was captured with HS All-in-One Fluorescence Microscope (BZ-9000, KEYENCE CORPORATION), and the ratio (%) of sirius red-stained area relative to the whole kidney area was measured by a built-in image analysis function.

[4] = test system: SD rat model of renal ischemia-reperfusion injury; assay: Suppressive effect on tubulointerstitial fibrosis in a rat model of renal ischemia-reperfusion injury (sirius red staining); type: in vivo; conditions: male SD rats, oral once daily for 6 days starting 3 days before ischemia-reperfusion injury, 0.2 or 2 mg/mL at 5 mL/kg; kidney 4 weeks after injury; FIG. 3
Protocol: Experiment 2. […] Male SD rat at 6 weeks of age (CHARLES RIVER LABORATORIES JAPAN, INC.) was used as an experiment animal. 0.5% (w/v) Methylcellulose (MC) was orally administered to Vehicle Group and Sham Group, and 0.2 mg/mL or 2 mg/mL Compound A suspended in 0.5% (w/v) methylcellulose (MC) was orally administered to Compound A Group at a dose of 5 mL/kg once daily for 6 days from 3 days before the ischemia-reperfusion injury. On one day before the ischemia-reperfusion injury, the right kidney was removed under isoflurane anesthesia. The ischemia-reperfusion injury was induced by clamping the left renal vein and artery for 45 minutes and then following reperfusion under isoflurane anesthesia, whereas such a surgery treatment was not performed for the Sham Group. 4 Weeks after the ischemia-reperfusion injury, the rats were exsanguinated under isoflurane anesthesia, kidney was collected and fixed in 10% neutral buffered formalin, and then paraffin-embedded section was prepared. Staining and image analysis were performed by a similar method as described above.

O=C(O)CNC(=O)c1c(O)cc(CCc2ccccc2)n2ncnc12 [Compound A, 2-({[7-hydroxy-5-(2-phenylethyl)-[1,2,4]triazolo[1,5-a]pyridin-8-yl]carbonyl}amino)acetic acid]
prolyl hydroxylase (PHD) inhibitory action [1]: has a prolyl hydroxylase (PHD) inhibitory action
stabilization of hypoxia-inducible factor (HIF) [2]: stabilizes the hypoxia-inducible factor (HIF)
tubulointerstitial fibrosis, sirius red-stained area ratio [3]: suppressive effect on tubulointerstitial fibrosis
tubulointerstitial fibrosis, sirius red-stained area ratio [4]: suppressive effect on tubulointerstitial fibrosis
